The text below walks through data of patent US20220313651A1, “INHIBITORS OF ZIKA VIRUS INFECTION” (priority 2019, published 2022).

The test system of one data set is ZIKV (PAN2016). In words: Time-of-addition experiment, ZIKV PAN2016 in Vero E6 cells. It is filed as cell-based, Zika virus (ZIKV). The settings on record: for Inhibition of ZIKV infection, attachment: ZIKV and compound at 4° C. 1 h; for Inhibition of ZIKV infection, pretreatment of ZIKV: virus incubated with compound 37° C. 1 h before cells; for Inhibition of ZIKV infection, pretreatment of cells: cells incubated with compound 37° C. 1 h before ZIKV; for Inhibition of ZIKV infection, penetration (membrane fusion): cells with ZIKV at 4° C. 1 h; for Inhibition of ZIKV infection, penetration (membrane fusion) / Inhibition of ZIKV infection, post-entry stage: then compound 37° C. 1 h; for Inhibition of ZIKV infection, post-entry stage: cells with ZIKV at 37° C. 1 h; for inhibition at 7.5 µM: Zika virus. Here is the method:
FIG. 2A-K depicts a time-of-addition experiment to test the ability of the disclosed compounds to block ZIKV infection at different steps of the viral life cycle. […] FIG. 2B: Pretreatment of cells: cells were pre-incubated with one of the compounds at 37° C. for 1 h, and the unbound compounds were then removed, followed by addition of ZIKV and incubation of cells at 37° C. for 1 h. After removal of the unbound ZIKV, the cells were cultured and plaques and inhibition rate determined as in FIG. 2A. FIG. 2C: Blockage of ZIKV attachment: cells were incubated with ZIKV at 4° C. for 1 h (to allow ZIKV attachment but not fusion between ZIKV and cell membranes) in the presence of one of the compounds. After removal of the unbound ZIKV and compounds, the cells were cultured and plaques and inhibition rate determined. […] FIG. 2E: Blockage of ZIKV penetration (membrane fusion): cells were incubated with ZIKV at 4° C. for 1 h to allow ZIKV attachment. After removal of the unbound ZIKV, the cells were incubated with one of the compounds at 37° C. for 1 h to allow fusion of virus-cell membranes. After further removal of the unbound compounds, the cells were cultured and plaques and inhibition rate determined. FIG. 2F: Inhibition of post-entry stage: cells were incubated with ZIKV at 37° C. for 1 h (to allow ZIKV entry into the target cells). […] The percent inhibition was calculated based on the numbers of plaques in the presence or absence of serially diluted compounds. The data are expressed as mean±s.e.m. (n=2). The experiments were repeated three times with similar results.
Time-of-addition experiments were performed in Vero E6 cells, and six specific steps are shown as follows. 1) Step 1: Pretreatment of virus. […] After removal of the unbound compounds, ZIKV was incubated with cells at 37° C. for 1 h, followed by culturing cells at 37° C. for 4-5 days, and enumerating plaques. 2) Step 2: Pretreatment of cells. […] The unbound ZIKV was removed, and the cells were cultured and plaques enumerated as in Step 1. 3) Step 3: Attachment. […] After removal of the unbound ZIKV and compounds, the cells were cultured and plaques enumerated as in Step 1. 4) Step 4: Co-treatment. […] After removal of the unbound viruses and compounds, the cells were cultured and plaques enumerated as in Step 1. 5) Step 5: Fusion. Cells were incubated with ZIKV at 4° C. for 1 h for ZIKV attachment. […] The unbound compounds were removed, and the cells were cultured and plaques enumerated as in Step 1. 6) Step 6: Post-entry. Cells were incubated with ZIKV at 37° C. for 1 h for ZIKV entry. […] The unbound compounds were then removed, and the cells were cultured and enumerated for plaques as in Step 1. The data are expressed as mean % inhibition±s.e.m. (n=2). The percent inhibition was calculated based on the numbers of plaques in the presence or absence of the compounds. The experiments were repeated three times with similar results.
Time-of-addition experiments. were performed to identify mechanisms of the Z-medicaments against ZIKV infection. […] Specifically, the following six stages of ZIKV infection were tested: (a) Pretreatment of ZIKV (PAN2016, ˜2.5×10^3 PFU) with the Z-medicaments at 37° C. for 1 h before incubation with cells; (b) Pretreatment of cells with the Z-medicaments at 37° C. for 1 h before incubation with ZIKV (PAN2016, ˜100 PFU); (c) Co-treatment of cells, ZIKV (PAN2016, ˜300 PFU) and the Z-medicaments at 4° C. for 1 h; (d) Co-treatment of cells, ZIKV (PAN2016, ˜100 PFU) and the Z-medicaments at 37° C. for 1 h; (e) Pre-incubation of cells with ZIKV (PAN2016, ˜300 PFU) at 4° C. for 1 h and then incubation with the Z-medicaments at 37° C. for 1 h; and (f) Pre-incubation of ZIKV (PAN2016, ˜100 PFU) and cells at 37° C. for 1 h, followed by incubation with the Z-medicaments at 37° C. for 1 h. […]

In a further data set the test system is Vero E6 cells. In words: in vitro. The procedure:
The cytotoxicity of the Z-medicaments in Vero E6 (ZIKV target cells) was evaluated using the Cell Counting Kit-8 (CCK8).
(§1) Briefly, compounds at 2-fold serial dilutions were added to cells (2.0×10^4/well) pre-seeded in 96-well plates. The cells were cultured at 37° C. for 3 days, and incubated with CCK8 solution, followed by measurement of absorbance at 450 nm (A450 value) using microplate reader.

Another data set has as its system LLC-MK2 cells. The procedure:
The cytotoxicity of Z-medicaments in LLC-MK2 (DENV-1-4 target cells) was detected using Cell Counting Kit-8 (CCK8). […] The cells were then incubated with CCK8 solution, and measured absorbance at 450 nm (A450 value) using a microplate reader.
as §1

In data set [1] the test system is ZIKV human strain PRVABC59 (2015/Puerto Rico). In words: Plaque reduction inhibition assay in Vero E6 cells, ZIKV PRVABC59. Type of data set: cell-based, Zika virus (ZIKV). Here is the method: (§2) A plaque reduction inhibition assay was carried out to measure the inhibitory activity of Z-medicaments against infections of ZIKV and DENV. […] The compound-virus mixtures were then transferred to Vero E6 cells (10^5/well) and incubated at 37° C. for 1 h.

In data set [2] the test system is ZIKV rhesus macaque strain MR 766 (1947/Uganda). As to the kind of experiment: Plaque reduction inhibition assay in Vero E6 cells, ZIKV MR 766. It is filed as cell-based, Zika virus (ZIKV). Here is the method:
as §2

For data set [3], the system named is ZIKV human strain FLR (2015/Colombia). As to the kind of experiment: Plaque reduction inhibition assay in Vero E6 cells, ZIKV FLR. It is filed as cell-based, Zika virus (ZIKV). Here is the method: as §2
Setting [4] is: co-treatment of cells, gossypol 15 μM, curcumin 30 μM, digitonin 7.5 μM, conessine 30 μM, ST087010 15 μM.
Where [5] appears, read: gossypol 15 μM, curcumin 30 μM, digitonin 7.5 μM, conessine 30 μM, ST087010 15 μM.
Where [6] appears, read: Vero E6 cells, 3 days, CCK8, Table 1.
Setting [7] is: Zika virus, Vero C1008, in Macaca mulatta, Vero E6 cells, Table 1, read-out: IC50 against ZIKV strain MR 766.
The mark [8] stands for this setting: Zika virus, Vero C1008, Vero E6 cells, Table 1, read-out: IC50 against ZIKV strain FLR.

Where two headings read alike, the source gives them in different places. A value given as a limit tells only on which side of the number the result lay.

As for `C[C@H]1[C@H]2CC[C@H]3[C@@H]4CC=C5C[C@@H](N(C)C)CC[C@]5(C)[C@H]4CC[C@]23CN1C` [Conessine, conessine], the “Inhibition of ZIKV infection, attachment” value in the data set on ZIKV (PAN2016) (setting [4]) is “very low, to no, effects”. Further, the “Inhibition of ZIKV infection, pretreatment of ZIKV” value (shortened to “Inhibition … pretreatment of ZIKV”) with ZIKV (PAN2016) (setting [5]) is on record as “very low, to no, effects”.
For `COc1cc(/C=C/C(=O)CC(=O)/C=C/c2ccc(O)c(OC)c2)ccc1O` [Curcumin, curcumin], the midpoint of cytotoxicity in the data set with Vero E6 cells (setting [6]), the CC50, lay at 52.86 ± 0.52 µM. In the data set on ZIKV (PAN2016) (setting [5]), the “Inhibition of ZIKV infection, pretreatment of cells” value is “low to no impact”; the “Inhibition of ZIKV infection, penetration (membrane fusion)” value was “low to no impact”; the “Inhibition of ZIKV infection, post-entry stage” value is on record as “low to no impact”. Further, in the data set on LLC-MK2 cells (3 days, CCK8, Table 5), the CC50 – broadly, the concentration that lowers cell viability or growth by half – worked out at 59.4 ± 1.18 µM.
Take `C[C@@H]1CC[C@@]2(OC1)O[C@H]1[C@@H](O)[C@H]3[C@@H]4CC[C@H]5C[C@@H](O[C@@H]6O[C@H](CO)[C@H](O[C@@H]7O[C@H](CO)[C@@H](O)[C@H](O[C@@H]8OC[C@@H](O)[C@H](O)[C@H]8O)[C@H]7O[C@@H]7O[C@H](CO)[C@H](O)[C@H](O[C@@H]8O[C@H](CO)[C@@H](O)[C@H](O)[C@H]8O)[C@H]7O)[C@H](O)[C@H]6O)[C@H](O)C[C@]5(C)[C@H]4CC[C@]3(C)[C@H]1[C@@H]2C` [Digitonin, digitonin]: the CC50 with Vero E6 cells (setting [6]) is 56.3 ± 1.2 µM; in the data set on LLC-MK2 cells (3 days, CCK8, Table 5) it was 59.02 ± 0.33 µM. For the same molecule, the inhibition at 7.5 µM in the data set on ZIKV (PAN2016) (Vero C1008, 1 h, read-out: Inhibition of ZIKV infection, penetration (membrane fusion)) is 49 to 74%; in the data set on ZIKV (PAN2016) (Vero C1008, 1 h, read-out: Inhibition of ZIKV infection, post-entry stage), 49 to 74%; in the data set with ZIKV (PAN2016) (Vero C1008, read-out: Inhibition of ZIKV infection, pretreatment of cells) it was at least 94%. Moreover, the “Inhibition … pretreatment of ZIKV” value in the data set with ZIKV (PAN2016) (setting [5]) is “no effects”. The IC50 (in general, the concentration that gives 50% inhibition) turned out to be 3.76 ± 1.12 µM in data set [1] (Zika virus, Vero C1008, Vero E6 cells, Table 1, read-out: IC50 against ZIKV strain PRVABC59); 3.77 ± 0.31 µM in data set [2] (setting [7]); 3.34 ± 0.22 µM in data set [3] (setting [8]).
Take `Cc1cc2c(C(C)C)c(O)c(O)c(C=O)c2c(O)c1-c1c(C)cc2c(C(C)C)c(O)c(O)c(C=O)c2c1O` [Gossypol, gossypol]: the CC50 with Vero E6 cells (African green monkey, 3 days) turned out to be 14.2 ± 0.74 µM. Further, the IC50 in data set [1] (Zika virus, Vero C1008, read-out: ZIKV strains IC50, PRVABC59) was 4.55 ± 0.07 µM; in data set [2] (setting [7]) it was 3.75 ± 0.01 µM; in data set [2] (Zika virus, Vero C1008, in Macaca mulatta, read-out: ZIKV strains IC50, MR766), 4.14 ± 0.05 µM; in data set [3] (setting [8]), 0.21 ± 0.01 µM; in data set [3] (Zika virus, Vero C1008, read-out: ZIKV strains IC50, FLR), 0.73 ± 0.07 µM.
Take `Cc1cc2c(C(C)C)c(O)c(O)c(/C=N/n3c(=O)[nH][nH]c3=O)c2c(O)c1-c1c(C)cc2c(C(C)C)c(O)c(O)c(/C=N/n3c(=O)[nH][nH]c3=O)c2c1O` [ST087010]: in the data set with Vero E6 cells (Vero E6 cells), the “CC50 relative to that of gossypol” value was “about 3.5 fold”. Besides, in the data set with Vero E6 cells (Vero E6 cells, Table 7, gossypol derivatives), the CC50 worked out at 49.6 ± 1.83 µM. Besides, in the data set on ZIKV (PAN2016) (setting [5]), the “Inhibition of ZIKV infection, pretreatment of cells” value is “no or little”; the “Inhibition of ZIKV infection, penetration (membrane fusion)” value is “no or little”; the “Inhibition of ZIKV infection, post-entry stage” value is listed as under 20%; the “Inhibition … pretreatment of ZIKV” value was “almost completely inhibited”. Further, the “Inhibition of ZIKV infection, attachment” value in the data set with ZIKV (PAN2016) (setting [4]) is under 40%. In addition, in the data set on ZIKV (PAN2016) (co-treatment of cells, ZIKV and compound at 37° C. 1 h, gossypol 15 μM, curcumin 30 μM, digitonin 7.5 μM, conessine 30 μM, ST087010 15 μM), the “Inhibition of ZIKV infection, co-treatment of ZIKV and cells” value is recorded as “no or little”. Further, the IC50 in data set [1] (Vero E6 cells, Table 7, gossypol derivatives, read-out: ZIKV strains IC50, PRVABC59) was 2.36 ± 0.05 µM. Further, in data set [2] (Vero E6 cells, Table 7, gossypol derivatives, read-out: ZIKV strains IC50, MR766), the IC50 worked out at 3.52 ± 0.2 µM. Moreover, in data set [3] (Vero E6 cells, Table 7, gossypol derivatives, read-out: ZIKV strains IC50, FLR), the IC50 was determined as 2.76 ± 0.1 µM. Moreover, in the data set with LLC-MK2 cells (Table 8), the CC50 is 47.2 µM.
